The values that follow are results of earlier work, collected in patent US20220213156A1, “Peptides for use in therapy or prophylaxis of Herpesviridae-infections” (priority 2019, published 2022).

“And” between values parts separate entries of the source, which are not always exact repeats. Identical values can stand only once.

The test system of this data set is multidrug resistant CMV isolate (H815-2006). To be noted: isolate H815-2006 with UL97 L595S and UL54 V715M; cited from earlier work.

As for `Nc1nc(O)c2ncn(COC(CO)CO)c2n1` [GCV, Ganciclovir], the half-maximal inhibitory concentration (IC50) was > 30 µM and 31.5 µM.

The term IC50 denotes the concentration that gives 50% inhibition.
